From the supplement of paper PMC10331698
± gives the standard deviation of the averaged measurements.

Tests used:
Assay in all cases: level (log10 ratio to DMSO vehicle control); higher = higher biomarker level / cell amount than vehicle control
[1] = compound: C=C(C)C(=O)OCCC(F)(F)C(F)(F)C(F)(F)C(F)(F)C(F)(F)C(F)(F)F [6:2 Fluorotelomer methacrylate]; settings: in DMSO
Protocol: (§1)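 BioMAP Diversity Plus panel of 12 human primary cell co-culture systems (3C, 4H, LPS, SAg, BT, BF4T, BE3C, CASM3C, HDF3CGF, KF3CT, MyoF, Mphg). Compounds were added 1 h before stimulation and left for 24 h (MyoF 48 h; BT 72 h for soluble read-outs or 6 d for IgG). Biomarkers were read by ELISA, cytotoxicity by SRB, PBMC viability and proliferation by Alamar Blue. Each well value was divided by the mean of 8 DMSO control wells on the same plate and log10 transformed; duplicate blinded samples were tested at 4 concentrations.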

[2] = compound: C=CC(=O)OCC(F)(F)C(F)(F)C(F)(F)COC(=O)C=C [1H,1H,5H,5H-Perfluoro-1,5-pentanediol diacrylate]; settings: 6700 nM; in DMSO
Protocol: as §1

[3] = compound: FC(F)(F)C(F)(F)C(F)(F)C(F)(F)C(F)(F)C(F)(F)C(F)(F)I [1-Iodopentadecafluoroheptane]; settings: in DMSO
Protocol: as §1

[4] = compound: FC(F)(F)C(F)(F)C(F)(F)CC1CO1 [1H,1H-Heptafluorobutyl epoxide]; settings: in DMSO
Protocol: as §1

[5] = compound: NS(=O)(=O)C(F)(F)C(F)(F)C(F)(F)C(F)(F)C(F)(F)C(F)(F)F [Perfluorohexanesulfonamide]; settings: in DMSO
Protocol: as §1

[6] = compound: O=S(=O)(O)CCC(F)(F)C(F)(F)C(F)(F)C(F)(F)C(F)(F)C(F)(F)F [6:2 Fluorotelomer sulfonic acid]; settings: in DMSO
Protocol: as §1

| Test System | level (log10) ([1]; 6700 nM) | level (log10) ([1]; 20000 nM) | level (log10) ([1]; 60000 nM) | level (log10) [2] | level (log10) ([3]; 6700 nM) | level (log10) ([3]; 20000 nM) | level (log10) ([4]; 6700 nM) | level (log10) ([4]; 20000 nM) | level (log10) ([4]; 60000 nM) | level (log10) ([5]; 6700 nM) | level (log10) ([5]; 20000 nM) | level (log10) ([5]; 60000 nM) | level (log10) ([6]; 6700 nM) | level (log10) ([6]; 20000 nM) | level (log10) ([6]; 60000 nM) |
| --- | --- | --- | --- | --- | --- | --- | --- | --- | --- | --- | --- | --- | --- | --- | --- |
| lMphg:CD69 | -0.0125 ± 0.049 | -0.046 ± 0.0028 | -0.0915 ± 0.019 | -0.0015 ± 0.0078 | -0.0455 ± 0.043 | -0.079 ± 0.062 | -0.0285 ± 0.0064 | 0.005 ± 0.041 | 0.045 ± 0.081 | -0.02 ± 0.023 | -0.066 ± 0.02 | -0.169 ± 0.0085 | -0.034 ± 0.04 | -0.065 ± 0.054 | -0.073 ± 0.025 |
| lMphg:CXCL8/IL-8 | 0.0275 ± 0.005 | 0.0205 ± 0.0092 | 0.0425 ± 0.026 | 0.03 ± 0.0099 | -0.018 ± 0.0071 | 0.0165 ± 0.019 | -0.0265 ± 0.015 | -0.019 ± 0.021 | -0.0105 ± 0.029 | 0.05 ± 0.014 | 0.083 ± 0.011 | 0.146 ± 0.0085 | -0.0115 ± 0.005 | 0.022 ± 0.014 | 0.0725 ± 0.0092 |
| lMphg:IL-1alpha | -0.0445 ± 0.076 | -0.03 ± 0.02 | -0.0305 ± 0.069 | 0.045 ± 0.024 | 0.03 ± 0.045 | 0.014 ± 0.0085 | -0.012 ± 0.0071 | -0.025 ± 0.0071 | -0.002 ± 0.028 | 0.019 ± 0.052 | 0.114 ± 0.016 | 0.148 ± 0.0028 | 0.0395 ± 0.05 | 0.0235 ± 0.035 | 0.0215 ± 0.039 |
| lMphg:M-CSF | 0.0215 ± 0.0064 | -0.016 ± 0.0071 | -0.0125 ± 0.025 | -0.0245 ± 0.0035 | -0.0015 ± 0.042 | 0.015 ± 0.0014 | 0.0065 ± 0.013 | -0.003 ± 0.011 | 0.003 ± 0.04 | -0.051 ± 0.072 | -0.113 ± 0.037 | -0.119 ± 0.051 | 0.0045 ± 0.0078 | -0.023 ± 0.028 | -0.0145 ± 0.0064 |
| lMphg:SRB-Mphg | 0.01 ± 0.011 | 0.0095 ± 0.0092 | 0.0105 ± 0.0021 | 0.0135 ± 0.00071 | 0.005 ± 0.018 | 0.0125 ± 0.011 | 0.012 ± 0.0085 | -0.0005 ± 0.021 | -0.0085 ± 0.005 | 0.002 ± 0.0028 | -0.021 ± 0.0057 | -0.0625 ± 0.013 | 0.0065 ± 0.0064 | 0.0135 ± 0.0078 | 0.0025 ± 0.036 |
| lMphg:sIL-10 | -0.01 ± 0.089 | -0.0545 ± 0.035 | 0.0135 ± 0.0035 | -0.13 ± 0.035 | 0.004 ± 0.081 | -0.0995 ± 0.021 | -0.0515 ± 0.022 | -0.047 ± 0.031 | -0.01 ± 0.011 | 0 ± 0.0071 | -0.142 ± 0.017 | -0.5835 ± 0.00071 | -0.025 ± 0.037 | -0.015 ± 0.02 | -0.049 ± 0.0057 |
